Experimental data reported in patent US20230414607A1, “METHODS OF TREATMENT” (BOW RIVER LLC, priority 2017, published 2023).
Values joined by “and” are separate entries in the source; they are usually repeats but may differ in a detail not shown here. Equal entries are not always repeated. Where two headings read alike, the source gives them in different places.

What was measured:
[1] = cited from earlier work
[2] = Example 1: pharmacokinetic study with posaconazole and lurasidone in obese subjects; type: in vivo, human
Procedure: Inventors studied 6 obese male and female subjects (ages 18-50, BMI>35) taking Posaconazole oral tablets (300 mg qd) and Lurasidone (20 mg qd). Body weights and BMI measurements for the 6 subjects are provided below in Table 1.
Subjects were dosed with Lurasidone alone on Day 1, then subsequently dosed to steady-state Posaconazole levels, with a loading dose of 300 mg twice a day on Day 2 and 300 mg once a day thereafter over a period of 14 days. Posaconazole administration was then stopped and Lurasidone (20 mg qd) administered 2, 4, and 6 days after administration had ceased (studies days 17, 19, and 21 respectively).

CYP3A4 [3] = biological target: T1, CYP3A4 (Homo sapiens, UniProt P08684); conditions: in vivo
T1 sequence (P08684 whole entry): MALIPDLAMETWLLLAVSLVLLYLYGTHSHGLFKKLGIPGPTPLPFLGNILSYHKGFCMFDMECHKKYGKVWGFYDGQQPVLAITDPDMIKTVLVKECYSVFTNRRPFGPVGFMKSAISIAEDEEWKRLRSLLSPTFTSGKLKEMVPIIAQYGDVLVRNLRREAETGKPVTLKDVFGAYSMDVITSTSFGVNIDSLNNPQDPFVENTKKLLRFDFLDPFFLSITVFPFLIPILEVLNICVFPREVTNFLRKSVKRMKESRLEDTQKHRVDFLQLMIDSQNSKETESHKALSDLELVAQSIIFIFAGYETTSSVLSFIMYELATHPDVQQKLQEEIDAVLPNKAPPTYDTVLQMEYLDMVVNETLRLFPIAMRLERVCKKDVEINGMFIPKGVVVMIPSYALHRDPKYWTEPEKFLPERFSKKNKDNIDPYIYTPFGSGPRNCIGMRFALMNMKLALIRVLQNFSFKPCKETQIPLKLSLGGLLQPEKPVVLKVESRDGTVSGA
Source text: The reduced dose of the CYP3A4 substrate drug may be administered with posaconazole, the day after stopping posaconazole, or two or more days (e.g., as described herein) after stopping posaconazole.
To mitigate this risk, in some embodiments the administration of the CYP3A4 substrate drug is contraindicated not just for co-administration with posaconazole, but the administration is also contraindicated for a period of time (e.g., 2 or more days) after stopping posaconazole beyond the label-prescribed delay of one day (i.e., contraindication for co-administration of the CYP3A4 substrate drug and posaconazole). In some embodiments, the present methods provide for administering the CYP3A4 substrate drug as soon as it is safe to do so, e.g., for time periods exceeding about 1 day, as described herein. […] This accounts for the need to treat the patient with the CYP3A4 substrate drug with no more delay (after stopping posaconazole) than is necessary, so that the risks of leaving such a patient untreated are minimized as much as possible.

[4] = cited from earlier work; remark: listed apart in the source
CYP3A4 [5] = biological target: T1, CYP3A4; conditions: for predicted lurasidone AUC levels (reported as GMR) greater than baseline: human
Source text: Blood plasma levels may be described in various ways, such as area under the plasma concentration curve (AUC) and peak plasma concentration (Cmax). Baseline levels and posaconazole interaction levels for CYP3A4 substrate drugs may be compared using the geometric mean ratio (GMR) of AUC and Cmax. […] GMR is the standard industry and regulatory method for assessing the ratio of change of a pharmacokinetic variable (such as AUC) relative to its own baseline value (e.g., in a patient that was not treated with posaconazole). Once the level of substrate drug (AUC or Cmax) during co-administration with posaconazole and a CYP3A4 substrate drug is known, a function can be derived using conventional pharmacological methods to estimate how the AUC or plasma level of the CYP3A4 substrate drug is expected to decay over time after stopping administration of posaconazole. Such a function can be used to provide a plot of the decay GMR of AUC (or Cmax) of the CYP3A4 substrate drug versus time due to its interaction with posaconazole, based on the stated half-life of posaconazole.
The expected DDI decay curve can also be calculated for Cmax GMR by substituting Cmax during co-administration for AUC during co-administration in equation 1. As used herein, “expected levels” and “predicted levels” and the like, refer to the AUC or Cmax GMR values calculated using equation 1.

CYP3A = experiment: Example 2: lurasidone pharmacokinetics during and after posaconazole (drug-drug interaction); type: in vivo; conditions: human; for half-life: plasma, oral, read-out: Lurasidone elimination half-life, arithmetic mean ± S.E. (converted)
CYP3A4 [6] = biological target: T1, CYP3A4; conditions: in vivo; cited from earlier work
[7] = 2 days after stopping posaconazole

SMILES: O=C1[C@@H]2[C@H]3CC[C@H](C3)[C@@H]2C(=O)N1C[C@@H]1CCCC[C@H]1CN1CCN(c2nsc3ccccc23)CC1 [lurasidone]
- increase in the AUC of lurasidone associated with somnolence ([1]; about 3 fold increase in GMR): about 300%
- increase in AUC of lurasidone associated with akathisia ([1]; about 4 fold increase in GMR): 400%
- Lurasidone AUC Ratio relative to Day 1 ([2]; Day 17, 2 days after Posaconazole was stopped, individual obese subjects): 2.98 and 1.78
- AUC ([2]; both sexes, human, in vivo, 20 mg, Day 17, 2 days after Posaconazole was stopped, individual obese subjects): 196 ng·h/mL
- post-Posaconazole treatment mean AUC ratio values for Lurasidone ([2]; both, human, in vivo): 3.6-4.3 ×
- post-Posaconazole treatment mean AUC ratios of Lurasidone, times higher than the baseline ([2]; both, human, in vivo): about 3 times
- actual AUC levels, fold greater than expected (CYP3A4 [3]; [7]): about 2 fold
- actual AUC levels, fold greater than expected (CYP3A4 [3]; 3 days after stopping posaconazole): 2-3 fold
- actual AUC levels, fold greater than expected (CYP3A4 [3]; 4 days after stopping posaconazole): 2.5-3.5 fold
- normal baseline AUC: mean AUC0-tau ([4]; 120 mg lurasidone in the fed state after a 350 kcal meal): about 743 ng*h/mL
- normal baseline Cmax: mean Cmax ([4]; 120 mg lurasidone in the fed state following a 350 kcal meal): about 160 ng/mL
- day after stopping posaconazole on which predicted AUC reaches baseline (CYP3A4 [5]): ~9 days
- predicted lurasidone AUC levels (reported as GMR) greater than baseline (CYP3A4 [5]; 1 day after stopping posaconazole): about 400%
- predicted lurasidone AUC levels (reported as GMR) greater than baseline (CYP3A4 [5]; [7]): about 300%
- Corrected Cmax, arithmetic mean ± standard error (CYP3A; in vivo, 20 mg): 19.8 ± 4 ng/mL
- Cmax (CYP3A; in vivo, 20 mg, Corrected Cmax, arithmetic mean ± standard error): 17.1 ± 1.6 ng/mL
- half-life (CYP3A; 20 mg, Normal, Day 1 (baseline)): 9.4 h
- half-life (CYP3A; 20 mg, Normal, Day 20 (posaconazole given Days 4-17)): 39 ± 3 h
- half-life (CYP3A; 20 mg, Normal, Day 23 (posaconazole given Days 4-17)): 48 ± 5 h
- half-life (CYP3A; 20 mg, Normal, Day 26 (posaconazole given Days 4-17)): 50 ± 7 h
- half-life (CYP3A; 20 mg, Normal, Day 30 (posaconazole given Days 4-17)): 45 ± 9 h
- half-life (CYP3A; 20 mg, Obese, Day 1 (baseline)): 10.9 h
- half-life (CYP3A; 20 mg, Obese, Day 20 (posaconazole given Days 4-17)): 48 ± 4 h
- half-life (CYP3A; 20 mg, Obese, Day 23 (posaconazole given Days 4-17)): 52 ± 3 h
- half-life (CYP3A; 20 mg, Obese, Day 26 (posaconazole given Days 4-17)): 61 ± 4 h
- half-life (CYP3A; 20 mg, Obese, Day 30 (posaconazole given Days 4-17)): 71 ± 5 h
- half-life (CYP3A; Normal, Day 14 (with posaconazole)): 37 ± 4 h
- half-life (CYP3A; Obese, Day 14 (with posaconazole)): 38 ± 2 h

SMILES: COc1cc2c(cc1O)CCN[C@]21CS[C@@H]2c3c(OC(C)=O)c(C)c4c(c3[C@H](COC1=O)N1[C@@H]2[C@H]2c3c(cc(C)c(OC)c3O)C[C@@H]([C@@H]1O)N2C)OCO4 [trabectedin]
- AUC co-administration levels, Fold change (CYP3A4 [6]): 1.66 fold
- AUC co-administration levels, Percent of baseline (CYP3A4 [6]): 166%
- Cmax co-administration levels, Fold change (CYP3A4 [6]): 1.22 fold
- Cmax co-administration levels, Percent of baseline (CYP3A4 [6]): 122%
- Baseline AUC (% CV) ([4]; AUCinf one dose (24 hr infusion) at 600 ug/m^2): 12 (±4.8) ng*h/mL
- Baseline AUC (% CV) ([4]; AUCinf one dose (24 hr infusion) at 900 ug/m^2): 36 (±16) ng*h/mL
- Baseline AUC (% CV) ([4]; AUCinf one dose (24 hr infusion) at 1200 ug/m^2): 32 (±13) ng*h/mL
- Baseline AUC (% CV) ([4]; AUCinf one dose (24 hr infusion) at 1500 ug/m^2): 55 (±25) ng*h/mL
- Baseline Cmax (% CV) ([4]; One dose (24 hr infusion) at 1500 ug/m^2): 1.8 (±1.1) ng/ml

SMILES: CCOc1cc2ncc(C#N)c(Nc3ccc(OCc4ccccn4)c(Cl)c3)c2cc1NC(=O)/C=C/CN(C)C [neratinib]
- AUC co-administration levels, Fold change (CYP3A4 [6]): 5.81 fold
- AUC co-administration levels, Percent of baseline (CYP3A4 [6]): 581%
- Cmax co-administration levels, Fold change (CYP3A4 [6]): 4.21 fold
- Cmax co-administration levels, Percent of baseline (CYP3A4 [6]): 421%
- Baseline AUC (% CV) ([4]; AUC0-24 single dose 180 mg): 734 ± 291 ng·h/mL
- Baseline AUC (% CV) ([4]; AUC0-24 single dose 240 mg): 823 ± 291 ng·h/mL
- Baseline AUC (% CV) ([4]; AUC0-24 single dose 320 mg): 1582 ± 800 ng·h/mL
- Baseline Cmax (% CV) ([4]; single dose 180 mg): 65.9 ± 34.7 ng/mL
- Baseline Cmax (% CV) ([4]; single dose 240 mg): 75.9 ± 12.9 ng/mL
- Baseline Cmax (% CV) ([4]; single dose 320 mg): 118 ± 47.6 ng/mL

SMILES: CC[C@@H]1CN(C(=O)NCC(F)(F)F)C[C@@H]1c1cnc2cnc3[nH]ccc3n12 [upadacitinib]
- Baseline AUC (% CV) ([4]; AUCinf single dose at 3 mg): 103 ± 27.6 ng·h/mL
- Baseline AUC (% CV) ([4]; AUCinf single dose at 6 mg): 160 ± 37.6 ng·h/mL
- Baseline AUC (% CV) ([4]; AUCinf single dose at 12 mg): 331 ± 49.8 ng·h/mL
- Baseline AUC (% CV) ([4]; AUCinf single dose at 24 mg): 615 ± 78.1 ng·h/mL
- Baseline Cmax (% CV) ([4]; single dose at 6 mg): 38.9 ± 9.96 ng/mL
- Baseline Cmax (% CV) ([4]; single dose at 12 mg): 82.9 ± 12.1 ng/mL

SMILES: COc1cc(Nc2ncc(F)c(Nc3ccc4c(n3)NC(=O)C(C)(C)O4)n2)cc(OC)c1OC [R406]
- Baseline AUC (% CV) ([4]; in vivo): 7080 (±2670) ng*h/mL
- Baseline Cmax (% CV) ([4]; in vivo): 550 (±270) ng/ml

SMILES: CO[C@H]1C[C@@H]2CC[C@@H](C)[C@@](O)(O2)C(=O)C(=O)N2CCCC[C@H]2C(=O)O[C@H]([C@H](C)C[C@@H]2CC[C@@H](OCCO)[C@H](OC)C2)CC(=O)[C@H](C)/C=C(\C)[C@@H](O)[C@@H](OC)C(=O)[C@H](C)C[C@H](C)/C=C/C=C/C=C/1C [everolimus]
- normal baseline AUC: mean AUC0-24±SD at steady state ([4]; 10 mg everolimus): about 536±7.7 ng*h/mL
- normal baseline Cmax: mean Cmax (% CV), steady state ([4]; 10 mg everolimus): 59.7±16.9 (21.7%) ng/mL

SMILES: CN1CC(=O)N2[C@H](c3ccc4c(c3)OCO4)c3[nH]c4ccccc4c3C[C@@H]2C1=O [tadalafil]
- normal baseline AUC: mean AUC0-∞ (% CV) ([4]; 10 mg tadalafil): about 3647 (34.0%) μg*h/L
- normal baseline Cmax: mean Cmax (% CV) ([4]; 10 mg tadalafil): 190 (21.7%) μg/L
- normal baseline Cmax: mean Cmax (% CV) ([4]; 20 mg tadalafil): 548 (24.0%) μg/L
